Source: ChEMBL document CHEMBL2375211, “2-methoxyjuglone induces apoptosis in HepG2 human hepatocellular carcinoma cells and exhibits in vivo antitumor activity in a H22 mouse hepatocellular carcinoma model” (J Nat Prod, 2013)
In brackets after ≈: the same amount, converted by molar mass. Activity calls are given as the source filed them. The rule behind the calls is not given here.

What was measured:
HepG2 [1] = assay: Cell cycle arrest in human HepG2 cells assessed as accumulation at G1 phase at 4.8 ug/mL after 24 hrs by propidium iodide staining-based flow cytometric analysis (reference value: 45%); assay type: functional
HepG2 [2] = assay: Cell cycle arrest in human HepG2 cells assessed as accumulation at G1 phase at 6.4 ug/mL after 48 hrs by propidium iodide staining-based flow cytometric analysis (reference value: 64%); assay type: functional
HepG2 [3] = assay: Cell cycle arrest in human HepG2 cells assessed as accumulation at G2/M phase at 3.2 ug/mL after 24 hrs by propidium iodide staining-based flow cytometric analysis (reference value: 9%); assay type: functional
HepG2 [4] = assay: Cytotoxicity against human HepG2 cells assessed as cell viability after 72 hrs by MTT assay; assay type: functional, cell-based; settings: HepG2, 72 h
HepG2 [5] = assay: Cell cycle arrest in human HepG2 cells assessed as accumulation at G1 phase at 1.6 ug/mL after 24 hrs by propidium iodide staining-based flow cytometric analysis (reference value: 45%); assay type: functional
HepG2 [6] = assay: Cell cycle arrest in human HepG2 cells assessed as accumulation at G1 phase at 4.8 ug/mL after 48 hrs by propidium iodide staining-based flow cytometric analysis (reference value: 64%); assay type: functional
HepG2 [7] = assay: Cell cycle arrest in human HepG2 cells assessed as accumulation at G2/M phase at 4.8 ug/mL after 24 hrs by propidium iodide staining-based flow cytometric analysis (reference value: 9%); assay type: functional
HepG2 [8] = assay: Cell cycle arrest in human HepG2 cells assessed as accumulation at sub-G1 phase at 6.4 ug/mL after 48 hrs by propidium iodide staining-based flow cytometric analysis (reference value: 3%); assay type: functional
HepG2 [9] = assay: Cell cycle arrest in human HepG2 cells assessed as accumulation at sub-G1 phase at 4.8 ug/mL after 48 hrs by propidium iodide staining-based flow cytometric analysis (reference value: 3%); assay type: functional
HepG2 [10] = assay: Cell cycle arrest in human HepG2 cells assessed as accumulation at G1 phase at 6.4 ug/mL after 24 hrs by propidium iodide staining-based flow cytometric analysis (reference value: 45%); assay type: functional
HepG2 [11] = assay: Cell cycle arrest in human HepG2 cells assessed as accumulation at G1 phase at 3.2 ug/mL after 24 hrs by propidium iodide staining-based flow cytometric analysis (reference value: 45%); assay type: functional
HepG2 [12] = assay: Induction of apoptosis in human HepG2 cells assessed as mitochondrial cytochrome c-dependent caspase-3 activation at 1.6 to 4.8 ug/mL after 24 hrs by Western blot analysis; assay type: functional, cell-based
HepG2 [13] = assay: Cell cycle arrest in human HepG2 cells assessed as accumulation at sub-G1 phase at 8 ug/mL after 24 hrs by propidium iodide staining-based flow cytometric analysis (reference value: 4%); assay type: functional
HepG2 [14] = assay: Cell cycle arrest in human HepG2 cells assessed as accumulation at S phase at 3.2 ug/mL after 48 hrs by propidium iodide staining-based flow cytometric analysis (reference value: 31%); assay type: functional
HepG2 [15] = assay: Cell cycle arrest in human HepG2 cells assessed as accumulation at S phase at 1.6 ug/mL after 24 hrs by propidium iodide staining-based flow cytometric analysis (reference value: 46%); assay type: functional
HepG2 [16] = assay: Cell cycle arrest in human HepG2 cells assessed as accumulation at S phase at 8 ug/mL after 48 hrs by propidium iodide staining-based flow cytometric analysis (reference value: 31%); assay type: functional
HepG2 [17] = assay: Cell cycle arrest in human HepG2 cells assessed as accumulation at S phase at 3.2 ug/mL after 24 hrs by propidium iodide staining-based flow cytometric analysis (reference value: 46%); assay type: functional
HepG2 [18] = assay: Cell cycle arrest in human HepG2 cells assessed as accumulation at G1 phase at 8 ug/mL after 48 hrs by propidium iodide staining-based flow cytometric analysis (reference value: 64%); assay type: functional
HepG2 [19] = assay: Cell cycle arrest in human HepG2 cells assessed as accumulation at S phase at 4.8 ug/mL after 24 hrs by propidium iodide staining-based flow cytometric analysis (reference value: 46%); assay type: functional
HepG2 [20] = assay: Induction of apoptosis in human HepG2 cells assessed as decrease in Bcl-2 level at 1.6 to 4.8 ug/mL after 24 hrs by Western blot analysis; assay type: functional, cell-based
HepG2 [21] = assay: Cell cycle arrest in human HepG2 cells assessed as accumulation at sub-G1 phase at 8 ug/mL after 48 hrs by propidium iodide staining-based flow cytometric analysis (reference value: 3%); assay type: functional
HepG2 [22] = assay: Cell cycle arrest in human HepG2 cells assessed as accumulation at G2/M phase at 6.4 ug/mL after 24 hrs by propidium iodide staining-based flow cytometric analysis (reference value: 9%); assay type: functional
HepG2 [23] = assay: Cell cycle arrest in human HepG2 cells assessed as accumulation at G2/M phase at 3.2 ug/mL after 48 hrs by propidium iodide staining-based flow cytometric analysis (reference value: 5%); assay type: functional
HepG2 [24] = assay: Induction of apoptosis in human HepG2 cells assessed as increase in mitochondrial cytochrome c release after 24 hrs by Western blot analysis; assay type: functional, cell-based
HepG2 [25] = assay: Cell cycle arrest in human HepG2 cells assessed as accumulation at S phase at 1.6 ug/mL after 48 hrs by propidium iodide staining-based flow cytometric analysis (reference value: 31%); assay type: functional
HepG2 [26] = assay: Induction of apoptosis in human HepG2 cells assessed as PARP cleavage at 1.6 to 4.8 ug/mL after 24 hrs by Western blot analysis; assay type: functional, cell-based
HepG2 [27] = assay: Cytotoxicity against human HepG2 cells assessed as cell viability after 48 hrs by MTT assay; assay type: functional, cell-based; settings: HepG2, 48 h
HepG2 [28] = assay: Cell cycle arrest in human HepG2 cells assessed as accumulation at G2/M phase at 1.6 ug/mL after 48 hrs by propidium iodide staining-based flow cytometric analysis (reference value: 5%); assay type: functional
HepG2 [29] = assay: Cell cycle arrest in human HepG2 cells assessed as accumulation at G1 phase at 1.6 ug/mL after 48 hrs by propidium iodide staining-based flow cytometric analysis (reference value: 64%); assay type: functional
HepG2 [30] = assay: Cell cycle arrest in human HepG2 cells assessed as accumulation at G2/M phase at 6.4 ug/mL after 48 hrs by propidium iodide staining-based flow cytometric analysis (reference value: 5%); assay type: functional
HepG2 [31] = assay: Cell cycle arrest in human HepG2 cells assessed as accumulation at S phase at 8 ug/mL after 24 hrs by propidium iodide staining-based flow cytometric analysis (reference value: 46%); assay type: functional

SMILES: COC1=CC(=O)c2c(O)cccc2C1=O
- Activity (HepG2 [1]): 38%
- Activity (HepG2 [2]): 46%
- Activity (HepG2 [3]): 2%
- IC50 (HepG2 [4]): 2.7 µg/mL (≈ 13.2 µM)
- Activity (HepG2 [5]): 37%
- Activity (HepG2 [6]): 32%
- Activity (HepG2 [7]): 0%
- Activity (HepG2 [8]): 18%
- Activity (HepG2 [9]): 6%
- Activity (HepG2 [10]): 37%
- Activity (HepG2 [11]): 34%
- Activity (HepG2 [12]): Active
- Activity (HepG2 [13]): 7%
- Activity (HepG2 [14]): 64%
- Activity (HepG2 [15]): 62%
- Activity (HepG2 [16]): 46%
- Activity (HepG2 [17]): 64%
- Activity (HepG2 [18]): 54%
- Activity (HepG2 [19]): 62%
- Activity (HepG2 [20]): Active
- Activity (HepG2 [21]): 33%
- Activity (HepG2 [22]): 2%
- Activity (HepG2 [23]): 1%
- Activity (HepG2 [24]): Dose-dependent effect
- Activity (HepG2 [25]): 49%
- Activity (HepG2 [26]): Active
- IC50 (HepG2 [27]): 3.7 µg/mL (≈ 18.1 µM)
- Activity (HepG2 [28]): 1%
- Activity (HepG2 [29]): 50%
- Activity (HepG2 [30]): 2%
- Activity (HepG2 [31]): 59%
